Drawing on patent publication US8158621B2, “Methods of treating or preventing autoimmune diseases with 2,4-pyrimidinediamine compounds” (Rigel Pharmaceuticals, Inc., priority 2002, dated 2012), this text covers IC50 for 28 molecules.

pIC50: −log10 of the molar value.

The first test relates to Human Jurkat T-cells (clone N). Nature of the test: Jurkat T-cell activation (anti-TCR, CD69 upregulation).
Details: not given
The class given is cell-based. In a few lines: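 Readout is CD69 upregulation by flow cytometry (anti-CD69-APC, 20 min at 4 °C) after 20 h anti-TCR (C305, 500 ng/ml) stimulation at 37 °C.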
With `OCCOc1cccc(Nc2ncc(F)c(Nc3ccc(CO)c(CO)c3)n2)c1` [Compound R940292], the pIC50 was 5.56.

Turning to `CCOC(=O)COc1ccc(Nc2ncc(Br)c(Nc3ccc(OCC(=O)OCC)cc3)n2)cc1` [Compound R925779], the pIC50 was below 5.00.

As to `Cn1nnc(COc2ccc(Nc3nccc(Nc4cccc(O)c4)n3)cc2)n1` [Compound R920910], the pIC50 was 5.62.

`COC(=O)c1cnc(Nc2ccc(OCC(=O)N3CCCC3)cc2)nc1Nc1ccc(OCC(=O)N2CCCC2)cc1` [Compound R926559] gave a pIC50 of 4.95.

In the case of `CNC(=O)COc1ccc(Nc2ncc(F)c(Nc3cccc(O)c3)n2)cc1` [Compound R945170], the pIC50 was 5.38.

Still in this test, the particulars now being: Homo sapiens, Jurkat.
`CC(C)(C)c1cccc(Nc2ncc(F)c(Nc3cccc(O)c3)n2)c1` [Compound R940257] showed a pIC50 below 5.00.

Molecule `Fc1cnc(NCc2ccccc2)nc1NCc1ccccc1` [Compound R925772] had a pIC50 below 5.00.

The molecule `COC(=O)c1ccc(Nc2ncc(F)c(Nc3ccc(C(=O)OC)c(O)c3)n2)cc1O` [Compound R945056] showed a pIC50 below 5.00.

On to `COc1cc(Nc2nc(Nc3cccc(O)c3)ncc2F)cc(OC)c1` [Compound R926802], for which the pIC50 is 5.23.

In the case of `Cc1cc(Nc2ncc(F)c(Nc3ccc4c(c3)OCCO4)n2)cc(C(F)(F)F)c1` [Compound R926895], the pIC50 is below 5.00.

Another test concerns cultured human mast cells (CHMC). Nature of the test: CHMC low cell density IgE activation: tryptase assay. The class given is cell-based. Particulars: low cell density; read-out: CHMC anti-IgE Tryptase. On the procedure:
Pellet CHMC cells (980 rpm, 10 min) and resuspend in pre-warmed MT. Add 65 ul of cells to each 96-well plate. Depending on the degranulation activity for each particular CHMC donor, load 1000-1500 cells/well. Mix four times followed by a 1 hr incubation at 37° C. […] Stimulate cells by adding 25 ul of 6× anti-IgE solution to the appropriate plates. Add 25 ul MT to un-stimulated control wells. Mix twice following addition of the anti-IgE. Incubate at 37° C. for 30 minutes. […] Spin plates at 1000 rpm for 10 min to pellet cells. Transfer 25 ul of supernatant to a 96-well black bottom plate and add 100 ul of freshly diluted tryptase substrate solution to each well. Incubate plates at room temperature for 30 min.
Consider `CNC(=O)COc1cccc(Nc2ncc(F)c(NC3CCC3)n2)c1` [Compound R945387], for which the pIC50 was 5.95.

As for `COc1cc(Nc2nc(Nc3ccc4c(c3)C(NC(=O)OC(C)(C)C)CCO4)ncc2F)cc(OC)c1` (racemic) [Compound R950432], the pIC50 is 5.62.

In the case of `Cn1ncc2ccc(Nc3ncc(F)c(Nc4ccc5c(c4)NC(C)(C)CO5)n3)cc21` [Compound R908592], the pIC50 was 7.30.

Regarding `NC1CCOc2ccc(Nc3ncc(F)c(Nc4ccc(Cl)c(Cl)c4)n3)cc21` (racemic) [Compound R950437], the pIC50 was 6.09.

On to `Cc1cc(C)cc(Nc2ncc(F)c(Nc3ccc4c(c3)NC(=O)C(C)(C)O4)n2)c1` [Compound R927076], for which the pIC50 is 7.15.

In the case of `COc1ccc(Nc2nc(Nc3cc(C)cc(C)c3)ncc2F)cc1Cl` [Compound R926991], the pIC50 is 6.36.

For the molecule `CCOC(=O)CCn1ncc2ccc(Nc3ncc(F)c(Nc4ccc5c(c4)NC(=O)C(C)(C)O5)n3)cc21` [Compound R935434], the pIC50 is 6.51.

Take `Cc1cc(Nc2ncc(F)c(Nc3ccc4c(n3)NC(=O)C(C)(C)O4)n2)cc(Cl)c1O` [Compound R940394]: the pIC50 is 4.78.

Consider `CNC(=O)c1ccc(Cn2ncc3ccc(Nc4ncc(F)c(Nc5ccc6c(c5)OCCO6)n4)cc32)c(OC)c1` [Compound R935399], for which the pIC50 is 6.04.

With `O=C1COc2ccc(Nc3nc(Nc4ccc(Oc5ccccc5)cc4)ncc3F)nc2N1` [Compound R945409], the pIC50 is below 5.00.

With `CCCCOc1ccc(Nc2ncc(F)c(Nc3ccc4c(n3)NC(=O)CO4)n2)cc1` [Compound R945408], the pIC50 was below 5.00.

Consider `C[C@@H]1Oc2ccc(Nc3nc(Nc4ccc(CNC(=O)OC(C)(C)C)cc4)ncc3F)cc2NC1=O` [Compound R950460], for which the pIC50 is 6.75.

Turning to `NCc1ccc(Nc2ncc(F)c(Nc3ccc(Cl)c(Cl)c3)n2)cc1` [Compound R950459], the pIC50 was 6.20.

Regarding `OCCCn1ncc2cc(Nc3ncc(F)c(Nc4ccc(F)c(F)c4)n3)ccc21` [Compound R935386], the pIC50 is 6.54.

Turning to `COC(=O)COc1cccc(Nc2ncc(F)c(Nc3ccc4c(n3)NC(=O)C(C)(C)O4)n2)c1` [Compound R940392], the pIC50 was 6.84.

For `COc1cc(Nc2nc(Nc3ccc4[nH]ncc4c3)ncc2F)ccc1F` [Compound R935417], the pIC50 was 6.38.

As for `COC(=O)N1CCN(c2ccc(Nc3nc(NC4CCC4)ncc3F)cc2)CC1` [Compound R945374], the pIC50 is below 5.00.

With `NCc1ccc(Nc2ncc(F)c(Nc3ccc4c(c3)NC(=O)C(F)(F)O4)n2)cc1` [Compound R950465], the pIC50 is 6.45.
